Data from patent publication US20090226427A1, “NOVEL PHARMACEUTICAL COMPOSITIONS FOR MODULATING ANGIOGENESIS” (priority 1999, published 2009).

What was measured:
endothelial cells = test: sandwich Matrigel model of endothelial tube formation; assay type: cell-based
Description: Indeed, while endothelial cells culture leads to pavimentous organization when plated on dishes (FIG. 1A), endothelial cells progressively form tubes when cultured within gels of collagen, fibrin or Matrigel®. Accordingly, in the “3-D model”, endothelial cells are mixed to the matrix before gelification and tube-like structures are obtained after 48-72 hours (FIG. 1B); this model, however, reduces the efficiency of transfection. In the “sandwich model”, cells are first cultured to confluence on a first layer of matrix, and are then covered by a second matrix layer; cells are easily transfected in the interval preceding the addition of the upper layer. The latter technique allows the formation of endothelial tubes in 3-6 hours; the tube structures are mature 12 hours after induction (FIG. 1C) and then start to regress.
Of note, when endothelial cells were transfected with an irrelevant construct (β-galactosidase-encoding), no change in the rate and extent of tube formation was observed.

eNOS = test: nitrite (NO2-) detection, VEGF-stimulated EC; assay type: cell-based, human
Description: Nitrite was Detected as follows: Quantitative analysis of nitrite (NO2^−) was used as an index of NO production. Briefly, aliquots of the medium bathing intact EC were collected at the time intervals corresponding to either 0-2 or 5-30 min of VEGF exposure. For the latter period, the medium bathing the VEGF-stimulated cells for the first 5 min was discarded and replaced by fresh VEGF-containing medium for the next 25 min. […] Data are normalized for the amount of protein in the dish, and are presented for convenience as mean+/−S.E. Statistical analyses were made using Student's t test or one-way ANOVA where appropriate.

CaM/eNOS interaction = test: CaM/eNOS co-immunoprecipitation, EC; assay type: cell-based, human
Description: (§1) Immunoprecipitation, Immunoblotting, and Kinase Assay was performed as follows: EC were homogenized in a buffer containing phosphatase and protease inhibitors (Garcia-Cardena, G., et al. (1998) Nature 392, 821-824), and processed for immunoblotting or immunoprecipitation in a octyl glucoside-containing buffer as described previously (Feron, O., et al. (1998) J. Biol. Chem. 273, 3125-3128). Caveolin, eNOS, and hsp90 antibodies were from BD Transduction Labs, Akt and phospho-Akt antibodies from BD PharMingen, CaM antibody from Santa Cruz, and phospho-eNOS antibody from NEB Cell Signaling Technology. Akt activity was measured using a non-radioactive immunoprecipitation kinase assay kit (NEB Cell Signaling Technology).
In order to further dissect the calcium dependence of the Akt-mediated phosphorylation of eNOS, the eNOS/CaM association was examined after 2 and 30 min VEGF exposure, i.e. at the maximum of the calcium transient and after the return of [Ca^2+]i to its basal level, respectively.

CMECs = test: angiogenesis assay on Matrigel, CMECs; assay type: cell-based, Mouse; details: CMECs; L-NAME 5 mmol/L coincubation; geldanamycin 1 μg/mL 30-minute preincubation
Description: (§2) Tube formation was observed using an inverted phase-contrast microscope (Zeiss Axiovert 25), and images were captured with a videographic system (Pixera Pro). The tube formation index was determined by measuring the length of tubes in random fields from each well using the Image J program. Statistical analyses were made using the Student t test or one-way ANOVA where appropriate.

AoECs = test: aortic ring culture in Matrigel, AoEC network organization; assay type: cell-based, rat; details: L-NAME added at the time of serum deprivation
Description: Cultures of AoECs and CoMECs organized in a network were then challenged at day 5 by incubation under serum-free conditions for 24 to 48 hours with or without some of the drugs mentioned above. […] Tube formation was observed using an inverted phase-contrast microscope (Zeiss Axiovert 25), and images were captured with a videographic system (Pixera Pro). The tube formation index was determined by measuring the length of tubes in random fields from each well using the Image J program. Statistical analyses were made using the Student t test or one-way ANOVA where appropriate.

caveolin-eNOS complex = test: caveolin/eNOS co-immunoprecipitation, VEGF-exposed HUVEC; assay type: cell-based, human; details: for effect on VEGF-induced caveolin/eNOS dissociation: geldanamycin, BAPTA
Description: as §1, with “(1998) J. Biol. Chem. 273, 30249-30254) and plated at 5×10^5 cells/ml. […] Immunoprecipitation,” for “Immunoprecipitation,”, “(Garcia-[…].,” for “(Garcia-Cardena, G.,”, “Technology). […] First, extracts were immunoprecipitated with caveolin antibodies and the immuno-precipitation immunoblotted with eNOS antibodies (FIG. 10A, top). […] Experiments were then performed to determine the time course of hsp90 interaction with eNOS.” for “Technology).”

wild-type eNOS = test: nitrite production in transfected COS cells, wild-type eNOS; assay type: cell-based
phospho-Ser473-Akt [1] = test: phospho-Ser473-Akt immunoblot, statin-exposed HUVECs; details: for (basal) level of Akt phosphorylation: phosphatase inhibitor
hsp90/eNOS interaction = test: hsp90/eNOS co-immunoprecipitation, VEGF-exposed HUVEC; assay type: cell-based, human
phospho-Ser1177-eNOS [2] = test: phospho-Ser1177-eNOS immunoblot, VEGF-exposed HUVEC; assay type: cell-based, human
phospho-Ser473-Akt [3] = test: phospho-Ser473-Akt immunoblot, VEGF-exposed HUVEC; assay type: cell-based, human
Akt/eNOS interaction = test: Akt/eNOS co-immunoprecipitation, VEGF-exposed HUVEC; assay type: cell-based, human
Description: Immunoprecipitation, Immunoblotting, and Kinase Assay was performed as follows: EC were homogenized in a buffer containing phosphatase and protease inhibitors (Garcia-[…] ., et al. (1998) Nature 392, 821-824), and processed for immunoblotting or immunoprecipitation in a octyl glucoside-containing buffer as described previously (Feron, O., et al. (1998) J. Biol. Chem. 273, 3125-3128). Caveolin, eNOS, and hsp90 antibodies were from BD Transduction Labs, Akt and phospho-Akt antibodies from BD PharMingen, CaM antibody from Santa Cruz, and phospho-eNOS antibody from NEB Cell Signaling Technology. Akt activity was measured using a non-radioactive immunoprecipitation kinase assay kit (NEB Cell Signaling Technology). It was further analyzed whether eNOS and Akt interact together in eNOS/Akt co-immunoprecipitation experiments. […] In an attempt to appreciate the proportion of eNOS involved in the geldanamycin-sensitive recruitment of Akt, the reverse co-immunoprecipitation assay was further developed: hsp90 and Akt antibodies were used to immunoprecipitate eNOS (which was detected by immunoblotting) and the supernatants of these immunoprecipitations were checked for residual eNOS presence; for this purpose, the immunoprecipitated supernatants were submitted to a second immunoprecipitation with eNOS antibodies.

[Ca^2+]i = Fura-2 measurement of [Ca2+]i in VEGF-exposed EC; assay type: cell-based, human
Description: Alternating wavelength excitation of 340 and 380 nm was provided by a motorized filter wheel. The image pairs monitored by the Ionoptix Myocam camera were processed by the IonWizard software (Ionoptix, Milton, Mass.) and are presented as the fluorescence ratio (340/380 nm), a direct index to the [Ca^2+]i. In some experiments, Fura-2-loaded cells were preincubated with the intracellular calcium chelator BAPTA/AM (20 μM).

HUVECs = test: angiogenesis assay on Matrigel, HUVECs; assay type: cell-based, human; details: HUVECs on Matrigel, atorvastatin
Description: as §2
Transfection and peptide loading was performed by reversible permeabilization: HUVECs were transfected with the hsp90 cDNA (a gift from Dr W. C. Sessa, Yale University, New Haven, Conn.) using Lipofectamine (Invitrogen) according to the manufacturer's protocol; an irrelevant plasmid encoding β-galactosidase was used as a control to obtain identical amounts of transfected DNA in each condition. HUVECs were also reversibly permeabilized, as previously reported (Feron et al. J Biol. Chem. 1998; 273:30249-30254), to introduce synthetic peptides derived from the caveolin scaffolding domain (CSD).

phospho-Ser1177-eNOS [4] = test: phospho-Ser1177-eNOS immunoblot, statin-exposed HUVECs
[5] = tested on: phospho-Akt/eNOS interaction; test: eNOS/phospho-Akt co-immunoprecipitation, statin-exposed HUVECs; details: co-IP
eNOS/hsp90 interaction = test: eNOS/hsp90 co-immunoprecipitation, statin-exposed HUVECs; details: mevalonate 1 mmol/L, BAPTA-AM 20 μmol/L, CSD peptide loading
[6] = nitrite production normalized per min
[7] = eNOS antibodies, geldanamycin 1 μg/ml 30 min, BAPTA

Compound: CC(=O)N[C@@H](C(=O)O)C(C)(C)SN=O (racemic) [SNAP]
- effect on the anti-angiogenic effect observed in caveolin-overexpressing cells (endothelial cells; caveolin-overexpressing cells): correct this anti-angiogenic effect
- endothelial tube formation (endothelial cells; non-transfected cells): accelerated the endothelial tube formation

Compound: CNc1ccc2oc(C[C@H]3O[C@@]4(CC[C@H]3C)O[C@H]([C@H](C)C(=O)c3ccc[nH]3)[C@H](C)C[C@H]4C)nc2c1C(=O)O [A23187]
- early NO2^− production (0-2 min) relative to the level obtained with VEGF (eNOS; 1 μM A23187 pulse for 2 min): ~3 fold
- long-term NO2^− production compared with VEGF-exposed cells (eNOS; 1 μM A23187 pulse for 2 min, then Ca^2+-free medium): significantly lower
- eNOS/CaM association (CaM/eNOS interaction; short exposure to A23187): led to the early association between eNOS and CaM

Compound: COC(=O)[C@@H](N)CCCNC(=N)N[N+](=O)[O-] [L-NAME, N^G-nitro-L-arginine methyl ester]
- effect on atorvastatin-induced tube formation (CMECs): almost completely blocked
- effect on statin stabilisation of the network (AoECs): abrogated the beneficial effects of statin pretreatment

Compound: COC1=C2C[C@@H](C)C[C@H](OC)[C@H](O)[C@@H](C)/C=C(\C)[C@H](OC(N)=O)[C@@H](OC)/C=C\C=C(/C)C(=O)NC(=CC1=O)C2=O [geldanamycin]
- effect on VEGF-induced caveolin/eNOS dissociation (caveolin-eNOS complex): no significant effect
- effect on early VEGF-induced eNOS activation (0-2 min) (eNOS; [6]): no significant effect
- part of the recombinant hsp90- and hsp90/Akt-mediated increase in NO production blocked (wild-type eNOS; COS cells, preincubation): 70-95%
- part of the Akt-dependent increase in nitrite production blocked (wild-type eNOS; WT-eNOS COS cells pretreated for 30 min): around 70%

Compound: calyculin
- (basal) level of Akt phosphorylation (phospho-Ser473-Akt [1]): stimulated Akt phosphorylation

Compound: VEGF
- time to complete dissociation of eNOS from caveolin (caveolin-eNOS complex; VEGF 50 ng/ml): ≤ 2 min
- time for which dissociation was maintained (caveolin-eNOS complex; in the presence of VEGF): at least 30 min
- proportion of eNOS pool engaged in hsp90 interaction (hsp90/eNOS interaction; 5 min VEGF, reverse immunoprecipitation with hsp90 antibodies): around half of the total eNOS pool
- cell exposure needed for hsp90 co-immunoprecipitation with eNOS (hsp90/eNOS interaction; VEGF 50 ng/ml): ≥ 2 min
- time to maximal eNOS phosphorylation (phospho-Ser1177-eNOS [2]; VEGF exposure): at least 5 min
- time at which Akt phosphorylation was already observed (phospho-Ser473-Akt [3]; VEGF exposure): 30 s
- proportion of eNOS pool engaged in Akt interaction (Akt/eNOS interaction; 5 min VEGF, reverse immunoprecipitation with Akt antibodies): around half of the total eNOS pool
- time from which Akt association to eNOS could be detected (Akt/eNOS interaction; VEGF stimulation): ≥ 2 min
- time to peak of calcium transient ([Ca^2+]i; VEGF exposure): 1 min
- rate of NO2- produced in the first 5-min interval versus the following 30 min (eNOS; after VEGF stimulation, preliminary experiments): 2-3 fold
- absolute amount of NO2^− produced in the 5-30-min period versus the first 2-min VEGF exposure (eNOS; control conditions): 5.5 fold
- amounts of NO2^− in the 55-60-min interval (eNOS; following VEGF stimulation): below the detection level
- persistence of the CaM/eNOS association (CaM/eNOS interaction; VEGF): at least 30 min
- time at which CaM could be detected in the eNOS immune complex (CaM/eNOS interaction; after VEGF stimulation): 2 min

Compound: C=C1[C@@H](O)[C@@H]2O[C@]3(CC[C@H](/C=C/[C@@H](C)[C@@H]4CC(C)=C[C@@]5(O[C@H](C[C@@](C)(O)C(=O)O)CC[C@H]5O)O4)O3)CC[C@H]2O[C@@H]1[C@@H](O)C[C@H](C)[C@H]1O[C@@]2(CCCCO2)CC[C@H]1C [okadaic acid]
- effect on statin-induced tube formation (HUVECs): stimulated basal and statin-induced tube formation
- (basal) level of Akt phosphorylation (phospho-Ser473-Akt [1]): dramatically increased
- increase of statin-induced phosphorylation of eNOS in the presence of okadaic acid (phospho-Ser1177-eNOS [4]; okadaic acid versus okadaic acid+statin, 100 nmol/L): ~3 fold
- effect on phospho-Akt/eNOS interaction upon statin [5]: promoted

Compound: CC(=O)OCOC(=O)CN(CC(=O)OCOC(C)=O)c1ccccc1OCCOc1ccccc1N(CC(=O)OCOC(C)=O)CC(=O)OCOC(C)=O [BAPTA-AM]
- effect on VEGF-induced caveolin/eNOS dissociation (caveolin-eNOS complex): complete inhibition
- effect on VEGF-induced hsp90/eNOS co-immunoprecipitation (hsp90/eNOS interaction; [7]): completely prevented
- effect on VEGF-induced eNOS phosphorylation (phospho-Ser1177-eNOS [2]; LY294002 10 μM 1-h preincubation, geldanamycin 1 μg/ml, BAPTA-AM 20 μM): prevented
- effect on VEGF-induced Akt phosphorylation (phospho-Ser473-Akt [3]; LY294002 10 μM 1-h preincubation, geldanamycin 1 μg/ml, BAPTA): not altered
- effect on VEGF-induced Akt/eNOS co-immunoprecipitation (Akt/eNOS interaction; [7]): prevented
- effect on VEGF-evoked calcium transient ([Ca^2+]i; 20 μM BAPTA-AM): completely abrogated
- effect on the basal level of [Ca^2+]i ([Ca^2+]i; 20 μM BAPTA-AM): no effect
- level of eNOS activation for the 5-30-min period (eNOS; BAPTA added after the early phase (at t=5 min), versus vehicle): no significant reduction
- effect on early VEGF-induced eNOS activation (0-2 min) (eNOS; [6]): sufficient to block
- effect on late VEGF-induced eNOS activation (5-30 min) (eNOS; [6]): sufficient to block
- effect on VEGF-induced CaM/eNOS interaction (CaM/eNOS interaction; BAPTA pretreatment): completely abrogated
- effect on statin-induced phosphorylation of Akt (phospho-Ser473-Akt [1]; CSD peptide loading, BAPTA-AM added 30 minutes before statin): blocked
- effect on statin-induced phosphorylation of eNOS (phospho-Ser1177-eNOS [4]; atorvastatin 1 μmol/L, LY294002 10 μmol/L, geldanamycin 1 μg/mL, mevalonate 1 mmol/L, BAPTA-AM 20 μmol/L, CSD peptide loading): abrogated
- effect on atorvastatin-stimulated eNOS/hsp90 interaction (eNOS/hsp90 interaction): abrogated
